In paper PMC11671793, “Design, Synthesis, and Evaluation of Novel (−)‐cis‐N‐Normetazocine Derivatives: In Vitro and Molecular Modeling Insights” (Chemical Biology & Drug Design, 2024):
Read-outs that look alike come from different tables or passages of the source.

How the values were obtained:
[1] = molecular target: T1, KOR (kappa opioid receptor) (Cavia porcellus, UniProt P41144); conditions: cited from earlier work
T1 construct: from tissue; host or cells: guinea pig brain membranes

[2] = molecular target: T2, DOR (delta opioid receptor) (Rattus norvegicus, UniProt P33533); conditions: cited from earlier work
[3] = molecular target: T3, MOR (mu opioid receptor) (Rattus norvegicus, UniProt P33535); conditions: cited from earlier work
T3 construct: from tissue; host or cells: rat brain membranes

[4] = molecular target: T3, MOR (mu opioid receptor); assay: MOR radioligand binding assay with [3H]-DAMGO; conditions: for K i DOR/K i MOR / K i KOR/K i MOR: selectivity ratio
[5] = molecular target: T2, DOR (delta opioid receptor); assay: DOR radioligand binding assay with [3H]-Delthorphin
[6] = molecular target: T1, KOR (kappa opioid receptor); assay: KOR radioligand binding assay with [3H]-U69,593; set-up: species or system guinea pig
[7] = molecular target: DOR; set-up: method as in Pasquinucci et al. [2010]; conditions: Figure 1; ref Pasquinucci et al. [2010]; cited from earlier work
[8] = molecular target: KOR; set-up: method as in Pasquinucci et al. [2010]; conditions: Figure 1; ref Pasquinucci et al. [2010]; cited from earlier work
[9] = molecular target: MOR; set-up: method as in Pasquinucci et al. [2010]; conditions: Figure 1; ref Pasquinucci et al. [2010]; cited from earlier work
[10] = read-out: KOR Expected K i, experimental Ki as repeated in Table 2, previously synthesized compounds, ref Pasquinucci et al. ([2017]), Costanzo et al. ([2023])
[11] = read-out: DOR Expected K i, experimental Ki as repeated in Table 2, previously synthesized compounds, ref Pasquinucci et al. ([2017]), Costanzo et al. ([2023])
[12] = read-out: MOR Expected K i, experimental Ki as repeated in Table 2, previously synthesized compounds, ref Pasquinucci et al. ([2017]), Costanzo et al. ([2023])
[13] = K i (nM) ± SD KOR, [3H]-U69,593, mean ± SD of at least two experiments in duplicate
[14] = KOR Expected K i (nM), experimental Ki as repeated in Table 2

T3 sequence (P33535 whole entry): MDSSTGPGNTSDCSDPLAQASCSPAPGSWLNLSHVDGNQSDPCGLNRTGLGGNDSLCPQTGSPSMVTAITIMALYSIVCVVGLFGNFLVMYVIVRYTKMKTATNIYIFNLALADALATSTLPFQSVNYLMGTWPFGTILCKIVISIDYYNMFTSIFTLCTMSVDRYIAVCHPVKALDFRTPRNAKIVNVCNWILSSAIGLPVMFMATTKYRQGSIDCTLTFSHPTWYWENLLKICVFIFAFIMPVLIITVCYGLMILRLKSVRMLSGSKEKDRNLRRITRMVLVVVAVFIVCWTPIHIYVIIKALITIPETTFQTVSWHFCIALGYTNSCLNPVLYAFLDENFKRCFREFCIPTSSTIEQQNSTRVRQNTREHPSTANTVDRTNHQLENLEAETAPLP
T2 sequence (P33533 whole entry): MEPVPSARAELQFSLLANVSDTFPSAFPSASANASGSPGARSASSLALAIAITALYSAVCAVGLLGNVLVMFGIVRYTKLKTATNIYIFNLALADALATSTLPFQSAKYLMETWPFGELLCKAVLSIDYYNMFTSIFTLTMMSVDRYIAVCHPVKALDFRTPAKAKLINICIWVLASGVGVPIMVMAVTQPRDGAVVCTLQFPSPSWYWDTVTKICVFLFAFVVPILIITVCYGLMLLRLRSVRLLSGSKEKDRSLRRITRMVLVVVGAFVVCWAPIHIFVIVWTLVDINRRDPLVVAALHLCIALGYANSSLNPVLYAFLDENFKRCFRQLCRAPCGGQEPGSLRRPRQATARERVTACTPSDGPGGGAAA
T1 sequence (P41144 whole entry): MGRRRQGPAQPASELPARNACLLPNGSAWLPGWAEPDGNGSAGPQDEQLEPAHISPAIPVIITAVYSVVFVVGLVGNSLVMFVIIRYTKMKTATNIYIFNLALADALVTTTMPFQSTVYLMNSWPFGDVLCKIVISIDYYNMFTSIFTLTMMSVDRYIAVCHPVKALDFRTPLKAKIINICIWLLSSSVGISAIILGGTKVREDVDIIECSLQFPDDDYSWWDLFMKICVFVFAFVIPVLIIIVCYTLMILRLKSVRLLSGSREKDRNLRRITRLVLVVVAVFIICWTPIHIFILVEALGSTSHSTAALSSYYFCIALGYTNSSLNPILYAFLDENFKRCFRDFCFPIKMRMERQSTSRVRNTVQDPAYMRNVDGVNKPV

SMILES	K i DOR/K i MOR [4]	K i KOR/K i MOR [4]	Ki [5] [µM]	Ki [6, 13] [nM]	Ki [4] [µM]	also measured
COC(CN1CCC2(C)c3cc(O)ccc3CC1C2C)c1ccccc1 (stereo not drawn) [LP2]	6.11	14.10	–	–	–	Ki ([1]; read-out: K i (nM) ± SD KOR, footnote c, ref Costanzo et al. ([2023])): 15.2 ± 0.8 nM; Ki [1, 10]: 15.2 ± 0.8 nM; Ki [2, 11]: 6.61 ± 0.6 nM; Ki ([2]; read-out: K i (nM) ± SD DOR, footnote c, ref Costanzo et al. ([2023])): 6.61 ± 0.6 nM; Ki ([3]; read-out: K i (nM) ± SD MOR, footnote c, ref Costanzo et al. ([2023])): 1.08 ± 0.1 nM; Ki [3, 12]: 1.08 ± 0.1 nM
C[C@H]1[C@H]2Cc3ccc(O)cc3[C@]1(C)CCN2CCC(=O)O [Compound 5, 3‐((2R,6R,11R)‐8‐Hydroxy‐6,11‐dimethyl‐1,4,5,6‐tetrahydro‐2,6‐methanobenzo[d]azocin‐3(2H)‐yl)propanoic acid]	2.88	–	1.1 ± 0.054	> 5000	0.383 ± 0.021	–
CCOC(=O)C(CCN1CCC2(C)c3cc(O)ccc3CC1C2C)c1ccccc1 (stereo not drawn) [Compound 1]	40.70	12.00	–	–	–	Ki ([1]; experimental Ki as repeated in Table 2, previously synthesized compounds, ref Pasquinucci et al. ([2017]), Costanzo et al. ([2023]), read-out: KOR Expected K i): 130 ± 15 nM; Ki ([1]; footnote b, ref Pasquinucci et al. ([2017]), read-out: K i (nM) ± SD KOR): 130 ± 15 nM; Ki ([2]; experimental Ki as repeated in Table 2, previously synthesized compounds, ref Pasquinucci et al. ([2017]), Costanzo et al. ([2023]), read-out: DOR Expected K i): 440 ± 22 nM; Ki ([2]; footnote b, ref Pasquinucci et al. ([2017]), read-out: K i (nM) ± SD DOR): 440 ± 22 nM; Ki ([3]; experimental Ki as repeated in Table 2, previously synthesized compounds, ref Pasquinucci et al. ([2017]), Costanzo et al. ([2023]), read-out: MOR Expected K i): 10.8 ± 2 nM; Ki ([3]; footnote b, ref Pasquinucci et al. ([2017]), read-out: K i (nM) ± SD MOR): 10.8 ± 2 nM
COC(=O)CCN1CC[C@@]2(C)c3cc(O)ccc3C[C@@H]1[C@@H]2C [Compound 3, Methyl 3‐[(2R,6R,11R)‐8‐hydroxy‐6,11‐dimethyl‐1,4,5, 6‐tetrahydro‐2,6‐methanobenzo[d]azocin‐3(2H]‐yl)propanoate]	26.98	3.19	0.513 ± 0.03	60.7 ± 8	0.019 ± 0.003	Ki [6, 14]: 60.7 ± 0.7 nM
COC(=O)CCCN1CC[C@@]2(C)c3cc(O)ccc3C[C@@H]1[C@@H]2C [Compound 4, Methyl 4‐((2R,6R,11R)‐8‐hydroxy‐6,11‐dimethyl‐1,4,5,6‐tetrahydro‐2,6‐ methanobenzo[d]azocin‐3(2H)‐yl)butanoate]	3.21	1.04	0.218 ± 0.02	70.5	0.0678 ± 0.007	Ki [6, 14]: 70.5 ± 0.76 nM
CC1C2Cc3ccc(O)cc3C1(C)CCN2CCC(C(=O)O)c1ccccc1 (stereo not drawn) [Compound 2]	23.30	–	–	–	–	Ki ([1]; read-out: K i (nM) ± SD KOR, footnote b, ref Pasquinucci et al. ([2017])): 3220 ± 60 nM; Ki [1, 10]: 3220 ± 60 nM; Ki [2, 11]: 275 ± 11 nM; Ki ([2]; read-out: K i (nM) ± SD DOR, footnote b, ref Pasquinucci et al. ([2017])): 275 ± 11 nM; Ki ([3]; read-out: K i (nM) ± SD MOR, footnote b, ref Pasquinucci et al. ([2017])): 11.8 ± 2 nM; Ki [3, 12]: 11.8 ± 2 nM
C[C@H]1[C@H]2Cc3ccc(O)cc3[C@]1(C)CCN2CCCC(=O)NO [Compound 8, N‐Hydroxy‐4‐((2R,6R,11R)‐8‐hydroxy‐6,11‐dimethyl‐1,4,5,6‐tetrahydro‐2,6‐methanobenzo[d]azocin‐3(2H)‐yl)butanamide]	30.83	–	1.3 ± 0.08	> 5000	0.0422 ± 0.003	–
C[C@H]1[C@H]2Cc3ccc(O)cc3[C@]1(C)CCN2CCC(=O)NO [Compound 7, N‐Hydroxy‐3‐((2R,6R,11R)‐8‐hydroxy‐6,11‐dimethyl‐1,4,5,6‐tetrahydro‐2,6‐methanobenzo[d]azocin‐3(2H)‐yl)propanamide]	10.89	–	0.335 ± 0.019	> 5000	0.0308 ± 0.002	–
C[C@H]1[C@H]2Cc3ccc(O)cc3[C@]1(C)CCN2CCCC(=O)O [Compound 6, 4‐((2R,6R,11R)‐8‐Hydroxy‐6,11‐dimethyl‐1,4,5,6‐tetrahydro‐2,6‐methanobenzo[d]azocin‐3(2H)‐yl)butanoic acid]	1.21	–	1.2 ± 0.064	> 5000	0.992 ± 0.055	–
CC1C2Cc3ccc(O)cc3C1(C)CCN2CCC(=O)Nc1ccccc1 (stereo not drawn) [LP1]	–	–	–	–	–	Ki [7]: 0.0291 µM; Ki [8]: 0.11 µM; Ki [9]: 0.00083 µM
